Source: patent US4529549A, “Spergualin-related compounds and process for the preparation thereof” (Zaidan Hojin Biseibutsu Kagaku Kenkyu Kai, priority 1982, dated 1985)
Converted amounts (≈) assume the structure as drawn. Read-outs that look alike come from different tables or passages of the source.

What was measured:
[1] = Stability of the compounds in aqueous solutions (HPLC residual content); assay type: physicochemical; conditions: water
Experimental: Each of the compounds of this invention was dissolved in water to a concentration of 0.5 (w/w)%. The aqueous solution was maintained at 40°±1° C., and sampled at certain time intervals. Each sample was subjected to high-performance liquid chromatographic analysis to measure the area of the peak of the compound at each sampling time, and to calculate the ratio of the area of the peak after the indicated period of time to that at the first sampling time. The results of the calculation were used to determine the contents (%) of the compound of this invention in the aqueous solution after the indicated periods of time, with the initial content of said compound set at 100%.

Bacillus subtilis PCI219 = assay: Growth-inhibiting action on Bacillus subtilis (agar plate MIC); assay type: cell-based; conditions: Bacillus subtilis
Experimental: Each of the compounds of this invention was dissolved in nutrient agar media to final concentrations of 100, 50, 25, 12.5, 6.25, 3.13 and 1.56 μg/ml, to prepare agar plates for testing. Bacillus subtilis PCI219 was adjusted to a content of 1×10^6 viable cells/ml, in a culture broth, and a loopful of the broth was applied onto the agar plates. The plates were incubated for 20 hours at 37° C. under stationary conditions, and observed for the formation of colonies of Bacillus subtilis. The lowest of the concentrations at which no colonies were formed was taken to be minimum inhibitory concentration (MIC).

[2] = tested on: mouse leukemia L1210 cells; assay: In vitro proliferation-inhibiting action on mouse leukemia L1210 cells; assay type: cell-based; conditions: 48 hours at 37° C.
Experimental: Leukemia L1210 cells (1×10^5 /0.2 ml) were transplanted to female DBA/2 mice intraperitoneally. four days later, the ascitic fluid was collected and centrifuged to obtain proliferated L1210 cells. The L1210 cells collected were added to RPMI1640 medium containing bovine fetal serum and 2-mercaptoethanol, to obtain a suspension of L1210 cells having a final concentration of 5×10^4 cells/0.9 ml. Each of the compounds of this invention was dissolved in said culture medium to prepare solutions with final concentrations ranging from 0.062 to 100 μg/ml. 0.9 ml of the L1210 cell suspension and 0.1 ml of each test solution were mixed in petri dishes, and incubated for 48 hours at 37° C. in an incubator under an atmosphere of carbon dioxide gas. The number of L1210 cells was counted before and after the incubation, and that concentration of the compound which inhibited the proliferation of L1210 cells by 50% of the control's proliferation was determined (IC50).

mouse leukemia L1210 = assay: Life-prolonging effect in mouse leukemia L1210; assay type: in vivo, mouse (male CDF1-SLC); conditions: once daily for 9 days, >125 effective
Experimental: (§1) Leukemia L1210 cells (1×10^5 /0.2 ml) were transplanted intraperitoneally into male CDF1 -SLC mice (6 mice/group). Each of the compounds of this invention was diluted with physiological saline to various concentrations. Each dilution was administered at a dose of 0.1 ml/10 g of body weight once daily for 9 days, starting on the day after the day of the transplantation. The mice of the control group were administered physiological saline.
The average number of days that the group receiving the compound of this invention survived was calculated. The FIGURE obtained was divided by the average number of survival days for the control group, and was multiplied by 100 (T/C (%)). T/C value more than 125 was considered to be effective.

[3] = Toxicity: change in body weight in mice transplanted with L1210; assay type: in vivo, mouse (male CDF1-SLC); conditions: once daily for 9 days
Experimental: as §1
Change in body weight, the measure of the toxicity of the compounds of this invention, was expressed by a difference between the change in body weight for the group receiving the compound of this invention and that for the control group receiving physiological saline and undergoing no transplantation.

Gram-positive bacteria = conditions: cited from earlier work
Gram-negative bacteria = conditions: cited from earlier work
mouse leukemia L-1210 = conditions: cited from earlier work
mouse leukemia FL-4 = conditions: cited from earlier work
Ehrlich carcinoma = conditions: cited from earlier work
sarcoma 180 (S-180) = conditions: cited from earlier work

Row | SMILES | remaining at 12 h [1] [%] | remaining at 24 h [1] [%] | remaining at 48 h [1] [%] | remaining at 72 h [1] [%] | remaining at 120 h [1] [%] | remaining at 168 h [1] [%] | IC50 [2] [µg/mL] | T/C (%) (mouse leukemia L1210; 0.39 mg/kg/day) | T/C (%) (mouse leukemia L1210; 0.78 mg/kg/day) | T/C (%) (mouse leukemia L1210; 1.56 mg/kg/day) | T/C (%) (mouse leukemia L1210; 3.13 mg/kg/day) | T/C (%) (mouse leukemia L1210; 6.25 mg/kg/day) | T/C (%) (mouse leukemia L1210; 12.50 mg/kg/day) | T/C (%) (mouse leukemia L1210; 25.00 mg/kg/day) | T/C (%) (mouse leukemia L1210; 50.00 mg/kg/day) | Change in body weight (g) ([3]; 0.39 mg/kg/day) | Change in body weight (g) ([3]; 0.78 mg/kg/day) | Change in body weight (g) ([3]; 1.56 mg/kg/day) | Change in body weight (g) ([3]; 3.13 mg/kg/day) | Change in body weight (g) ([3]; 6.25 mg/kg/day) | also measured
1 | Cl.Cl.Cl.N=C(N)NCCCCCCC(=O)NCC(=O)NCCCCNCCCN [Compound 1, 10-[N-(7-guanidinoheptanoyl)-glycyl]-1,5,10-triazadecane trihydrochloride] | 99.7 | 100 | 99.7 | 99.7 | 99.8 | 99.9 | 1.7 | 126 | > 250 | > 388 | > 667 | > 769 | > 528 | > 279 | 12.9 | +1.8 g | +2.7 g | +1.0 g | +0.8 g | +0.9 g | MIC (Bacillus subtilis PCI219; PCI219, nutrient agar, 20 hours at 37° C., read-out: MIC): 6.25 µg/mL; Change in body weight (g) ([3]; 12.50 mg/kg/day): +0.2 g; Change in body weight ([3]; 25.00 mg/kg/day): -1.6 g
2 | N=C(N)NCCCCC(O)CC(=O)NC(O)C(=O)NCCCCNCCCN (stereo not drawn) [Spergualin] |  |  |  |  |  |  | 4.6 (≈ 11.4 µM) |  | 129 | > 224 | > 665 | > 769 | > 700 | > 524 | > 342 |  | +0.8 g | +2.5 g | +1.2 g | +0.9 g | Residual content (%) of the compound in an aqueous solution ([1]; 12 h): 94.6%; Residual content (%) of the compound in an aqueous solution ([1]; 24 h): 90.8%; Residual content (%) of the compound in an aqueous solution ([1]; 48 h): 84.6%; Residual content (%) of the compound in an aqueous solution ([1]; 72 h): 78.5%; Residual content (%) of the compound in an aqueous solution ([1]; 120 h): 69.9%; Residual content (%) of the compound in an aqueous solution ([1]; 168 h): 65.1%; Change in body weight (g) ([3]; 12.50 mg/kg/day): +0.8 g; Change in body weight (g) ([3]; 25.00 mg/kg/day): +1.1 g; Change in body weight (g) ([3]; 50.00 mg/kg/day): +0.2 g; growth inhibitory activity (Gram-positive bacteria): growth inhibitory activity; growth inhibitory activity (Gram-negative bacteria): growth inhibitory activity; curing effect and life extension effect (mouse leukemia L-1210): distinctive curing effect and life extension effect; curing effect and life extension effect (mouse leukemia FL-4): distinctive curing effect and life extension effect; curing effect and life extension effect (Ehrlich carcinoma): distinctive curing effect and life extension effect; curing effect and life extension effect (sarcoma 180 (S-180)): distinctive curing effect and life extension effect
3 | Cl.Cl.Cl.N=C(N)NCCCCCCC(=O)N[C@@H](CO)C(=O)NCCCCNCCCN [Compound 2, 10-[N-(7-guanidinoheptanoyl)-L-seryl]-1,5,10-triazadecane trihydrochloride] | 100 | 100 | 99.8 | 100 | 99.7 | 99.8 | 4.5 | 124 | > 346 | > 769 | > 769 | > 705 | > 612 | 100 | 12.8 | +2.7 g | +1.5 g | +1.3 g | +0.6 g | +1.0 g | MIC (Bacillus subtilis PCI219; PCI219, 20 h): 12.5 µg/mL; Change in body weight ([3]; 12.50 mg/kg/day): -0.2 g
